Results taken from patent US10597388B2, “Pyridazinone herbicides” (FMC CORPORATION, priority 2014, dated 2020).

Columns and labels:
Type in all cases: in vivo
kochia (Kochia scoparia) = assay: Test A greenhouse herbicide test, pre- and postemergence
From the text: (§1) Seeds of plant species selected from barnyardgrass (Echinochloa crus-galli), kochia (Kochia scoparia), ragweed (common ragweed, Ambrosia elatior), ryegrass, Italian (Italian ryegrass, Lolium multiflorum), crabgrass, large (large crabgrass, Digitaria sanguinalis), foxtail, giant (giant foxtail, Setaria faberii), momingglory (Ipomoea spp.), pigweed (Amaranthus retroflexus), velvetleaf (Abutilon theophrasti), wheat (Triticum aestivum), and corn (Zea mays) were planted into a blend of loam soil and sand and treated preemergence with a directed soil spray using test chemicals formulated in a non-phytotoxic solvent mixture which included a surfactant.
(§2) At the same time, plants selected from these crop and weed species and also blackgrass (Alopecurus myosuroides), and galium (catchweed bedstraw, Galium aparine) were planted in pots containing the same blend of loam soil and sand and treated with postemergence applications of test chemicals formulated in the same manner. Plants ranged in height from 2 to 10 cm and were in the one- to two-leaf stage for the postemergence treatment. Treated plants and untreated controls were maintained in a greenhouse for approximately 10 d, after which time all treated plants were compared to untreated controls and visually evaluated for injury. Plant response ratings, summarized in Table A, are based on a 0 to 100 scale where 0 is no effect and 100 is complete control. A dash (-) response means no test result.

[1] = tested on: ragweed (common ragweed, Ambrosia elatior); assay: as above
From the text: as §1, §2

[2] = tested on: foxtail, giant (giant foxtail, Setaria faberii); assay: as above
From the text: as §1, §2

[3] = tested on: barnyardgrass (Echinochloa crus-galli); assay: as above
From the text: as §1, §2

[4] = tested on: pigweed (Amaranthus retroflexus); assay: as above
From the text: as §1, §2

[5] = tested on: ryegrass, Italian (Italian ryegrass, Lolium multiflorum); assay: as above
From the text: as §1, §2

[6] = tested on: wheat (Triticum aestivum); assay: as above; settings: Postemergence; for Wheat plant response rating: 0 to 100 scale, 0 is no effect, 100 is complete control
From the text: as §1, §2

corn (Zea mays) = assay: as above; settings: Postemergence; for Corn plant response rating: 0 to 100 scale, 0 is no effect, 100 is complete control
From the text: as §1, §2

[7] = tested on: blackgrass (Alopecurus myosuroides); assay: Test A greenhouse herbicide test, postemergence; settings: for Blackgrass plant response rating: 0 to 100 scale, 0 is no effect, 100 is complete control
From the text: as §2

[8] = tested on: galium (catchweed bedstraw, Galium aparine); assay: Test A greenhouse herbicide test, postemergence; settings: for Galium plant response rating: 0 to 100 scale, 0 is no effect, 100 is complete control
From the text: as §2

[9] = Postemergence, 125 g ai/ha, 0 to 100 scale where 0 is no effect and 100 is complete control
[10] = Postemergence, 500 g ai/ha, 0 to 100 scale, 0 is no effect, 100 is complete control
[11] = Preemergence, 125 g ai/ha, 0 to 100 scale where 0 is no effect and 100 is complete control
[12] = Preemergence, 500 g ai/ha, 0 to 100 scale where 0 is no effect and 100 is complete control
[13] = Preemergence, 500 g ai/ha, 0 to 100 scale, 0 no effect, 100 complete control
[14] = 125 g ai/ha, 0 to 100 scale where 0 is no effect and 100 is complete control
[15] = Postemergence, 500 g ai/ha, visual rating after approx. 10 d, 0 to 100 scale (0 no effect, 100 complete control)
[16] = 500 g ai/ha, visual rating after approx. 10 d, 0 to 100 scale (0 no effect, 100 complete control)

SMILES	Plant response rating, Kochia (kochia (Kochia scoparia); [9])	Kochia plant response rating (kochia (Kochia scoparia); [10])	Kochia plant response rating (kochia (Kochia scoparia); [11])	Plant response rating, Kochia (kochia (Kochia scoparia); [12])	Plant response rating, Ragweed [1, 9]	Ragweed plant response rating [1, 10]	Ragweed plant response rating [1, 11]	Plant response rating, Ragweed [1, 12]	Plant response rating, Foxtail, Giant [2, 9]	Foxtail, Giant plant response rating [2, 10]	Foxtail, Giant plant response rating [2, 11]	Plant response rating, Barnyardgrass [3, 9]	Barnyardgrass plant response rating [3, 11]	Plant response rating, Pigweed [4, 9]	Pigweed plant response rating [4, 11]	Plant response rating, Ryegrass, Italian [5, 9]	Plant response rating, Wheat [6, 14]	Plant response rating, Corn (corn (Zea mays); [14])	Plant response rating, Blackgrass [7, 14]	Plant response rating, Galium [8, 14]	other results
Cc1ccc2ccccc2c1-c1c(OC(=O)C2CC2)c(C)nn(C)c1=O [Compound 76]	20	40	0	0	0	20	0	50	0	20	0	0	0	10	20	40	0	0	0	70	Plant response rating, Foxtail, Giant [2, 12]: 20; Barnyardgrass plant response rating [3, 10]: 30; Plant response rating, Barnyardgrass [3, 13]: 30; Pigweed plant response rating [4, 10]: 20; Plant response rating, Pigweed [4, 12]: 50; Ryegrass, Italian plant response rating [5, 10]: 80; Ryegrass, Italian plant response rating [5, 11]: 50; Plant response rating, Ryegrass, Italian [5, 12]: 70; Wheat plant response rating ([6]; 500 g ai/ha): 0; Corn plant response rating (corn (Zea mays); 500 g ai/ha): 0; Blackgrass plant response rating ([7]; 500 g ai/ha): 10; Galium plant response rating ([8]; 500 g ai/ha): 80
CCc1ccc2ccccc2c1-c1c(OC(=O)OC(C)C)c(C)nn(C)c1=O [Compound 39]	30	30	0	–	50	90	10	–	0	60	0	0	0	50	80	90	0	0	30	90	Plant response rating, Kochia (kochia (Kochia scoparia); [13]): 0; Plant response rating, Ragweed [1, 13]: 70; Plant response rating, Foxtail, Giant [2, 13]: 60; Barnyardgrass plant response rating [3, 10]: 10; Plant response rating, Barnyardgrass [3, 13]: 10; Pigweed plant response rating [4, 10]: 80; Plant response rating, Pigweed [4, 13]: 80; Ryegrass, Italian plant response rating [5, 10]: 60; Ryegrass, Italian plant response rating [5, 11]: 40; Plant response rating, Ryegrass, Italian [5, 13]: 50; Wheat plant response rating ([6]; 500 g ai/ha): 10; Corn plant response rating (corn (Zea mays); 500 g ai/ha): 0; Blackgrass plant response rating ([7]; 500 g ai/ha): 70; Galium plant response rating ([8]; 500 g ai/ha): 100
COc1nn(C)c(=O)c(-c2c(C)sc3ccccc23)c1OC(C)=O [Compound 141]	10	–	0	60	60	–	–	60	20	–	30	20	50	0	40	70	0	0	0	70	Plant response rating, Kochia (kochia (Kochia scoparia); [15]): 30; Plant response rating, Ragweed [1, 15]: 40; Plant response rating, Foxtail, Giant [2, 15]: 70; Plant response rating, Foxtail, Giant [2, 12]: 70; Plant response rating, Barnyardgrass [3, 15]: 50; Plant response rating, Barnyardgrass [3, 12]: 90; Plant response rating, Pigweed [4, 15]: 30; Plant response rating, Pigweed [4, 12]: 60; Plant response rating, Ryegrass, Italian [5, 15]: 90; Plant response rating, Ryegrass, Italian [5, 12]: 80; Plant response rating, Wheat [6, 16]: 0; Plant response rating, Corn (corn (Zea mays); [16]): 0; Plant response rating, Blackgrass [7, 16]: 50; Plant response rating, Galium [8, 16]: 90
